The source made the active and inactive calls. The rule behind the calls is not given here.
Key:
[1] = Toxicity in C57BL/6 mouse assessed as induction of lethargy at 20 to 40 mg/kg, ig administered for 28 days; type: organism-based; conditions: in vivo, po, 672 h, dose 20-40 mg/kg, time 28 day
[2] = Toxicity in C57BL/6 mouse assessed as weight gain at 20 to 40 mg/kg, ig administered for 28 days; type: organism-based; conditions: in vivo, po, 672 h, dose 20-40 mg/kg, time 28 day
[3] = Toxicity in C57BL/6 mouse assessed as effect on liver at 20 to 40 mg/kg, ig administered for 28 days; type: organism-based; conditions: in vivo, po, 672 h, dose 20-40 mg/kg, time 28 day
[4] = molecular target: NACHT, LRR and PYD domains-containing protein 3 (Mus musculus, UniProt Q8R4B8); assay: Inhibition of NLRP3 inflammasome activation in LPS-stimulated mouse bone marrow-derived macrophages assessed as reduction in IL-1beta secretion preincubated for 30 mins followed by nigericin addition and measured after 30 mins by ELISA; type: tissue-based, Macrophage
NACHT, LRR and PYD domains-containing protein 3 (Mus musculus, UniProt Q8R4B8), sequence (Q8R4B8 whole entry, the tested form may be a part): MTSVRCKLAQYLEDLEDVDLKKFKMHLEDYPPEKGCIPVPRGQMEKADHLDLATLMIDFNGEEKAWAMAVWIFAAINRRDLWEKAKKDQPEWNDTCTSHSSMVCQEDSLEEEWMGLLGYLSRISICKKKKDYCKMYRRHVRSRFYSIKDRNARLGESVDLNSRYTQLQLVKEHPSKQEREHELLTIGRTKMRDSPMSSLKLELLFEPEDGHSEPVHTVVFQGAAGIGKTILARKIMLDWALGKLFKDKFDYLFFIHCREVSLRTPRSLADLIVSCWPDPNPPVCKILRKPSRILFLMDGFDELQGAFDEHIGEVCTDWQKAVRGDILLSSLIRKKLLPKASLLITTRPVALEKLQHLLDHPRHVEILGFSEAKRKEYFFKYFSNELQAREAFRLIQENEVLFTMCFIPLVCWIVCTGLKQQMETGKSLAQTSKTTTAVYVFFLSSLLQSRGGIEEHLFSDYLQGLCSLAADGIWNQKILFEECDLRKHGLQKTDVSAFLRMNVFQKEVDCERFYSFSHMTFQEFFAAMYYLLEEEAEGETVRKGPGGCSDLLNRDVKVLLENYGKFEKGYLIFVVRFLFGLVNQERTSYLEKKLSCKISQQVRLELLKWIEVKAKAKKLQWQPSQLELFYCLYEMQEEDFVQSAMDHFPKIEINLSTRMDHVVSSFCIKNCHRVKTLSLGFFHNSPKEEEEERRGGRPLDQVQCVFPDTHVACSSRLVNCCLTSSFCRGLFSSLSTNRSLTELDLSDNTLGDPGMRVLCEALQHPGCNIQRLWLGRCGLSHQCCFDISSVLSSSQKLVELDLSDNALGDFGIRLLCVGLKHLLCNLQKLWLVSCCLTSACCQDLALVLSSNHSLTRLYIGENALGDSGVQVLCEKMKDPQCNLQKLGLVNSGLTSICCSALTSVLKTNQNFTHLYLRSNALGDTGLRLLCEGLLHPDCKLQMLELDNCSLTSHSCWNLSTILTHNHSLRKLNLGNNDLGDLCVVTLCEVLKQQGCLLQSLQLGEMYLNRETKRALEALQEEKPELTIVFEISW

Mus musculus [5] = assay: Protection against DSS-induced acute ulcerative colitis in C57BL/6 mouse assessed as reduction in decrease in goblet cells at 10 to 20 mg/kg, ig administered for 7 days by Hematoxylin and eosin staining based optical microscopy; type: functional, organism-based; conditions: dose 10-20 mg/kg, time 7.0 day
[6] = molecular target: NACHT, LRR and PYD domains-containing protein 3 (Mus musculus) (UniProt Q8R4B8); assay: Inhibition of NLRP3 inflammasome activation in LPS-stimulated mouse bone marrow-derived macrophages assessed as reduction in activated caspase1 p20 in supernatant at 2 uM preincubated for 30 mins followed by nigericin addition and measured after 0.5 hrs by Western blot analysis; type: tissue-based; conditions: Macrophage, time 60.0 min
NACHT, LRR and PYD domains-containing protein 3 (Mus musculus), sequence (Q8R4B8 whole entry, the tested form may be a part): as above

[7] = molecular target: NACHT, LRR and PYD domains-containing protein 3 (Mus musculus) (UniProt Q8R4B8); assay: Inhibition of NLRP3 inflammasome activation in LPS-stimulated mouse bone marrow-derived macrophages assessed as attenuation of ASC dimer at 1 to 4 uM preincubated for 30 mins followed by nigericin addition and measured after 0.5 hrs by Western blot analysis; type: tissue-based; conditions: Macrophage, dose 1-4 µM
[8] = molecular target: NACHT, LRR and PYD domains-containing protein 3 (Mus musculus) (UniProt Q8R4B8); assay: Inhibition of NLRP3 inflammasome activation in LPS-stimulated mouse bone marrow-derived macrophages assessed as reduction in pro caspase1 secretion in cell lysate at 2 uM preincubated for 30 mins followed by nigericin addition and measured after 0.5 hrs by Western blot analysis; type: subcellular; conditions: Macrophage, time 60.0 min
[9] = Toxicity in C57BL/6 mouse assessed as weight loss at 20 to 40 mg/kg, ig administered for 28 days; type: organism-based; conditions: in vivo, po, 672 h, dose 20-40 mg/kg, time 28 day
[10] = molecular target: T1, Interferon-inducible protein AIM2 (Mus musculus) (UniProt Q91VJ1); assay: Inhibition of AIM2 inflammasome activation in LPS-stimulated mouse bone marrow-derived macrophages assessed as reduction in IL-1beta secretion at 2 uM preincubated for 30 mins followed by poly-(dA:dT) addition and measured after 4 hrs by ELISA; type: tissue-based; conditions: Macrophage, time 4.5 hrs
T1 sequence (whole entry): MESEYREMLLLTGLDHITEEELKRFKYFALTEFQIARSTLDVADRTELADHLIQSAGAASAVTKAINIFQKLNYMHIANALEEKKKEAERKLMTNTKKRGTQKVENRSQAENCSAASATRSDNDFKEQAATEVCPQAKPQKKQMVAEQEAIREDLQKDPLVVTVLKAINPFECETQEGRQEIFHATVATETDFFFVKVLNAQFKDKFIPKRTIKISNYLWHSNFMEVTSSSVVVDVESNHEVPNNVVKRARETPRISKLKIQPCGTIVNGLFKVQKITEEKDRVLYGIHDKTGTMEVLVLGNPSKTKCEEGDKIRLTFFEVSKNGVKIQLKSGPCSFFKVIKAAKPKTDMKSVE

[11] = molecular target: T2, NACHT, LRR and PYD domains-containing protein 3 (Homo sapiens, UniProt Q96P20); assay: Inhibition of recombinant human NLRP3 preincubated for 15 mins followed by ATP addition by ADP-Glo kinase assay
T2 sequence (Q96P20 whole entry, the tested form may be a part): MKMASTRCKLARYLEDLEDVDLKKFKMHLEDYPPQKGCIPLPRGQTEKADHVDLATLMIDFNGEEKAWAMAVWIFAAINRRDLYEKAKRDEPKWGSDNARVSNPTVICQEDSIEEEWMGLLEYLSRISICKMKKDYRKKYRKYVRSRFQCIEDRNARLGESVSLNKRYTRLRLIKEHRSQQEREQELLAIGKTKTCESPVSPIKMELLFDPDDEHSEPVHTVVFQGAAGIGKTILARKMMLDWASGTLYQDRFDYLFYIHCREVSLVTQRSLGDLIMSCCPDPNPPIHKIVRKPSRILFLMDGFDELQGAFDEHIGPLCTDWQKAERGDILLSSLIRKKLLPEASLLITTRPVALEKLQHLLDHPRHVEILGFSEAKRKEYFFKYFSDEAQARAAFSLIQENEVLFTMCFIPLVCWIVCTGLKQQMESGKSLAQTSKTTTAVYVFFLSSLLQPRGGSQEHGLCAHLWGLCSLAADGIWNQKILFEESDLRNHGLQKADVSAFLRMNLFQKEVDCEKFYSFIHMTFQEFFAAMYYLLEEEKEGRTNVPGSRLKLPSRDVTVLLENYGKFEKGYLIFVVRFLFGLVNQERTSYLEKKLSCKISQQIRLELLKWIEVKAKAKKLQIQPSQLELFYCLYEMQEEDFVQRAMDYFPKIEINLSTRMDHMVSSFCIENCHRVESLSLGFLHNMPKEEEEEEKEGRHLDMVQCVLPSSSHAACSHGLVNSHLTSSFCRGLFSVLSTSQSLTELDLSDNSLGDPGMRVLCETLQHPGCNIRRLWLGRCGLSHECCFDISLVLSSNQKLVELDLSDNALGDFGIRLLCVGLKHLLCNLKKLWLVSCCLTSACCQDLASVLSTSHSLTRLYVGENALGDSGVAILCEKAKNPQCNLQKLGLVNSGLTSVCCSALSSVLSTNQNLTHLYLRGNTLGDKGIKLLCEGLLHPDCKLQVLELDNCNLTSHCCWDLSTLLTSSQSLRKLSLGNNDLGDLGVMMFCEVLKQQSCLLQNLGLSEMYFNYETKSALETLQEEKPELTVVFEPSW

Mus musculus [12] = assay: Anti-inflammatory activity in C57BL/6 mouse DSS-induced acute ulcerative colitis assessed as reduction in disease index at 10 to 20 mg/kg, ig administered for 7 days; type: functional, organism-based; conditions: dose 10-20 mg/kg, time 7.0 day
[13] = Half life in human liver microsomes preincubated for 5 mins followed by NADPH addition and measured after 5 to 60 mins by LC-MS/MS analysis; type: ADME, Microsome
[14] = Half life in mouse liver microsomes preincubated for 5 mins followed by NADPH addition and measured after 5 to 60 mins by LC-MS/MS analysis; type: ADME, Microsome; conditions: time 5-60 min
[15] = Toxicity in C57BL/6 mouse assessed as effect on kidney at 20 to 40 mg/kg, ig administered for 28 days; type: organism-based; conditions: in vivo, po, 672 h, dose 20-40 mg/kg, time 28 day
[16] = AUC (0 to infinity) in mouse at 20 mg/kg, po measured up to 24 hrs by LC-MS/MS analysis; type: ADME, organism-based; parameters: route oral, dose 20 mg/kg, time <=24; conditions: in vivo
BMDM [17] = assay: Effect on pro-caspase1(p45) expression in LPS-stimulated mouse bone marrow-derived macrophages at 0.5 to 2 uM preincubated for 30 mins followed by nigericin addition and measured after 30 mins by Western blot analysis; type: functional, tissue-based; conditions: dose 0.5-2 µM, time 60.0 min
BMDM [18] = assay: Effect on NEK7 expression in LPS-stimulated mouse bone marrow-derived macrophages at 0.5 to 2 uM preincubated for 30 mins followed by nigericin addition and measured after 30 mins by Western blot analysis; type: functional, tissue-based; conditions: dose 0.5-2 µM, time 60.0 min
BMDM [19] = assay: Effect on pro-caspase1 expression in LPS-stimulated mouse bone marrow-derived macrophages at 0.5 to 2 uM preincubated for 30 mins followed by nigericin addition and measured after 30 mins by Western blot analysis; type: functional, tissue-based; conditions: dose 0.5-2 µM, time 60.0 min
[20] = Toxicity in C57BL/6 mouse assessed as effect on lung at 20 to 40 mg/kg, ig administered for 28 days; type: organism-based; conditions: in vivo, po, 672 h, dose 20-40 mg/kg, time 28 day
Mus musculus [21] = assay: Protection against DSS-induced acute ulcerative colitis in C57BL/6 mouse assessed as reduction in adhesion of colon at 10 to 20 mg/kg, ig administered for 7 days; type: functional, organism-based; conditions: dose 10-20 mg/kg, time 7.0 day
Mus musculus [22] = assay: Downregulation of phosphorylated p65 expression in colon of C57BL/6 mouse model of DSS-induced ulcerative colitis at 10 to 20 mg/kg, ig administered for 7 days by Western blot analysis; type: functional, organism-based; conditions: dose 10-20 mg/kg, time 7.0 day
[23] = molecular target: T2, NACHT, LRR and PYD domains-containing protein 3; assay: Binding affinity to His-GFP fused tagged NLRP3 (unknown origin) expressed in HEK293T assessed as thermal stabilization at 10 uM incubated for 30 mins by cellular thermal shift assay; type: cell-based
[24] = Cmax in mouse at 20 mg/kg, po measured up to 24 hrs by LC-MS/MS analysis; type: ADME, organism-based; parameters: route oral, dose 20 mg/kg, time <=24; conditions: in vivo
[25] = molecular target: NLR family CARD domain-containing protein 4 (Mus musculus) (UniProt Q3UP24); assay: Inhibition of NLRC4 inflammasome activation in LPS-stimulated mouse bone marrow-derived macrophages assessed as reduction in IL-1beta secretion at 2 uM preincubated for 30 mins followed by Salmonella addition and measured after 4 hrs by ELISA; type: tissue-based; conditions: Macrophage, time 4.5 hrs
NLR family CARD domain-containing protein 4 (Mus musculus), sequence (Q3UP24 whole entry, the tested form may be a part): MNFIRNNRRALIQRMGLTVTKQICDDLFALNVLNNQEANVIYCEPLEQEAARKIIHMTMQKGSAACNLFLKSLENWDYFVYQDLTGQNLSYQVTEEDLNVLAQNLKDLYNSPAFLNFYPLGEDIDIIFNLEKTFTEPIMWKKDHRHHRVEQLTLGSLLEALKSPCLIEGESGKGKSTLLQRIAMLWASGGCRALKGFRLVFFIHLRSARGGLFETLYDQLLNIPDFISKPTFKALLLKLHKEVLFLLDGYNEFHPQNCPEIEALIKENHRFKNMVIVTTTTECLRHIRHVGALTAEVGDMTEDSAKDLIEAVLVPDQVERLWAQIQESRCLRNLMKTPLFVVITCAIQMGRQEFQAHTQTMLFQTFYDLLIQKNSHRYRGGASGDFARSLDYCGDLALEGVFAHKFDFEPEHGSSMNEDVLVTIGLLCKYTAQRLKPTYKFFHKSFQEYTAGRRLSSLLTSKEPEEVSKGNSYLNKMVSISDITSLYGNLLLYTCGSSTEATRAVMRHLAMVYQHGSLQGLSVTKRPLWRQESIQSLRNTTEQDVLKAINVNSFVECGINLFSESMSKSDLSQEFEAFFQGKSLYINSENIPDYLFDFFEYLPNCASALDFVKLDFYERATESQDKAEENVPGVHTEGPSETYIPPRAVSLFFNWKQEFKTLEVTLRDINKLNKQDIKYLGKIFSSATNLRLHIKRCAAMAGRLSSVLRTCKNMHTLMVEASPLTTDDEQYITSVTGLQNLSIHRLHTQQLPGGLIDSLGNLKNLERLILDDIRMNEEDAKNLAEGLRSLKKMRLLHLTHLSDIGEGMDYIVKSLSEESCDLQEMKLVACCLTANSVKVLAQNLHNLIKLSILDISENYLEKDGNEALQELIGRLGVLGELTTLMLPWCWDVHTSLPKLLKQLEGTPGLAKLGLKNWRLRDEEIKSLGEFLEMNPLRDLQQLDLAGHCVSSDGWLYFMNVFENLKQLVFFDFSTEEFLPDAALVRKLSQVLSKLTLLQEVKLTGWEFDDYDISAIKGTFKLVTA

[26] = molecular target: NACHT, LRR and PYD domains-containing protein 3 (Mus musculus) (UniProt Q8R4B8); assay: Inhibition of NLRP3 inflammasome activation in LPS-stimulated mouse bone marrow-derived macrophages assessed as reduction in caspase1 p20 secretion preincubated for 30 mins followed by nigericin addition and measured after 30 mins by Western blot analysis; type: tissue-based; conditions: Macrophage, time 60.0 min
[27] = Toxicity in C57BL/6 mouse assessed as induction of convulsion at 20 to 40 mg/kg, ig administered for 28 days; type: organism-based; conditions: in vivo, po, 672 h, dose 20-40 mg/kg, time 28 day
[28] = molecular target: NACHT, LRR and PYD domains-containing protein 3 (Mus musculus) (UniProt Q8R4B8); assay: Inhibition of NLRP3 inflammasome activation in LPS-stimulated mouse bone marrow-derived macrophages assessed as reduction in IL-1beta secretion at 2 uM preincubated for 30 mins followed by MSU addition and measured after 0.5 hrs by ELISA; type: tissue-based; conditions: Macrophage, time 60.0 min

IC50 [4]: 0.56 µM | inhibition [6]: Active | inhibition [7]: Active | inhibition [8]: Active | inhibition [10]: inactive | inhibition [11]: Dose-Dependent Effect | half-life [13]: 68.1 min | half-life [14]: 43.3 min | AUC [16]: 845.93 ng·h/mL | Activity [23]: Active | Cmax [24]: 95.1 ng/mL | inhibition [25]: inactive | inhibition [26]: Dose-Dependent Effect | inhibition [28]: Active
SMILES: COc1cc(/C=C/c2ccc(NC(=O)C3CC3)cc2)c(/C=C/[N+](=O)[O-])c(OC)c1
Activity [1]: Non-Toxic | Activity [2]: Non-Toxic | Activity [3]: Non-Toxic | Activity (Mus musculus [5]): Active | Activity [9]: Non-Toxic | Activity (Mus musculus [12]): Active | Activity [15]: Non-Toxic | Activity (BMDM [17]): inactive | Activity (BMDM [18]): inactive | Activity (BMDM [19]): inactive | Activity [20]: Non-Toxic | Activity (Mus musculus [21]): Active | Activity (Mus musculus [22]): Active | Activity [27]: Non-Toxic
